“And” between values parts separate entries of the source, which are not always exact repeats. Equal values may be shown once.
Legend:
[1] = tested on: reserpine-induced stomach ulceration; assay: Anti-ulcer activity, reserpine-induced anti-ulcer test method of Selmici et al.; format: in vivo, male, albino, Sprague-Dawley rats; conditions: rat, oral, reserpine 5.0 mg/kg i.m., vs control
Method: The anti-ulcer activity of the compounds was determined using the reserpine-induced anti-ulcer test method, described by Selmici et al., which is described briefly as follows: male, albino, Sprague-Dawley rats, weighing approximately 300 g., were divided into medicated and control groups of at least five rats each, and one positive control group of five rats medicated with a known drug at the active dose was run with each experiment. The rats were medicated forty-eight, twenty-four, and one hour before receiving an injection of reserpine. All test drugs were administered orally in terms of base, and the control rats received only the vehicle of medication. The rats were housed individually in wire cages, and food was withdrawn twenty-four hours prior to injection of reserpine, while water was allowed ad libitum. One hour following the third medication, 5.0 mg. of reserpine per kilogram of body weight in a concentration of 5 mg./ml. was injected intramuscularly in each rat. Eighteen hours after injection the rats were sacrificed, their stomachs removed, opened along the greater curvature, rinsed in warm saline, and pinned to a cork board for gross observation. The stomachs were examined for the number and size of ulcerations located in the glandular portion of the stomach with the aid of a one millimeter grid ocular with a 10x dissecting microscope. The degree of ulceration was arbitrarily graded according to the number and size of the ulcers as follows:
The points were added together and divided by the number of rats in each group to give an ulcer score, and the difference in the mean scores of the medicated and control group was expressed as percent inhibition of ulceration. Alternatively, the results can be expressed as a ratio of the total number of rats with any degree of ulceration (as the numerator) to the total number of rats in the test group (as the denominator).

[2] = tested on: gastric secretion; assay: Anti-secretory activity, pylorus ligation method of Shay et al.; format: in vivo, male albino Wistar rats; conditions: rat; for Anti-Secretory % Inhibition of Free Acid / Anti-Secretory pH: oral; for Anti-Secretory % Inhibition of Free Acid: vs control; for Anti-Secretory pH: pH of gastric fluid
Method: In standard biological test procedures, described generally by Shay et al., Gastroenterology 5, 43 (1945) and 26, 906 (1954) and by Selmici et al., Acta Physiol. Acad. Sci. Hung. […] Anti-secretory activity was determined in male albino Wistar rats weighing approximately 180 g. using the method described by Shay et al. which is described as follows: the rats were divided into medicated groups of at least five rats each and control groups of ten rats. The rats were medicated orally once daily for two days prior to stomach ligation and once again immediately following ligation. All drugs were administered as the free base, and control rats received only the vehicle of medication. The rats were housed individually in wire cages, food was withdrawn forty-eight hours prior to surgery, and water was withdrawn at the time of surgery. Laparotomy was performed under light ether anesthesia, the pyloric-duodenal junction was ligated, and the wound was closed with metal clips and sprayed with a protective surgical dressing. Five hours following surgery, the rats were sacrificed, the stomach was removed, and the gastric juice collected. The gastric fluid was centrifuged, and total volume, color, and volume of solids were recorded. The pH of the gastric fluid was then determined on a Beckamn pH meter, and the "free" and "total" hydrochloric acid content of each gastric sample was determined by titrating an aliquot of the gastric fluid (diluted to approximately 10 ml. with distilled water) by titrating with 0.1N sodium hydroxide against Toepfers reagent and phenolphthalein, respectively. By determining the milliequivalents of hydrochloric acid per milliliter of gastric juice and knowing the total volume of gastric juice secreted by each rat, the total acid output can be calculated. Since pH is a function of "free" acid, the activity of the test compounds can be evaluated by comparison of the mean "free" acid of medicated rats with the mean "free" acid of the controls, and the activity can thus be expressed in terms of percent inhibition of free acid.

| SMILES | Anti-Ulcer % Inhibition ([1]; dose 25 (mg/kg)) [%] | Anti-Ulcer % Inhibition ([1]; dose 50 (mg/kg)) [%] | Anti-Ulcer % Inhibition ([1]; dose 100 (mg/kg)) [%] | Anti-Secretory % Inhibition of Free Acid ([2]; dose 12.5 (mg/kg)) [%] | Anti-Secretory pH ([2]; dose 12.5 (unit not in table; mg/kg)) | Anti-Secretory pH ([2]; dose 25 (mg/kg)) | Anti-Secretory % Inhibition of Free Acid ([2]; dose 25 (mg/kg)) [%] | Anti-Secretory pH ([2]; dose 50 (mg/kg)) | Anti-Secretory % Inhibition of Free Acid ([2]; dose 50 (mg/kg)) [%] | Anti-Secretory pH ([2]; dose 100 (mg/kg)) | Anti-Secretory % Inhibition of Free Acid ([2]; dose 100 (mg/kg)) | Anti-Secretory pH ([2]; dose 200 (mg/kg)) | Anti-Secretory % Inhibition of Free Acid ([2]; dose 200 (mg/kg)) [%] | anti-secretory activity (in words) ([2]; in vivo) |
| --- | --- | --- | --- | --- | --- | --- | --- | --- | --- | --- | --- | --- | --- | --- |
| Cc1c(C)c(C)n(CC(N)=O)c1C [Example 1, 2,3,4,5-tetramethyl-1-pyrroleacetamide] | 61 | 87 | 94 | 44 | 1.3 | 1.5 | 49 | 2.9 | 83 | 3.6 | 91% |  |  |  |
| Cc1ccc(C)n1CC(N)=O [Example 2, 2,5-dimethyl-1-pyrroleacetamide] |  | 40 |  |  |  |  |  | 1.7 | 21 | 2.7 and 2.6 | 78% and 63% | 4.6 | 100 |  |
| NC(=O)Cn1cccc1 [Reference, pyrrole-1-acetamide, reference compound] |  |  |  |  |  |  |  |  |  | 1.7 | 46% |  |  | has anti-secretory activity |
| Cc1c(C)c(C)n(CCC(N)=O)c1C [Example 3, β-(2,3,4,5-tetramethyl-1-pyrrole)propionamide] | 36 | 66 |  |  |  |  |  |  |  | 2.4 | 60% |  |  |  |
